For one data set, the system named is selected pests. Description: Soil drench on vegetable plants, overall comparison over crops and pests. It is filed as in vivo. Particulars: soil treatment at the same dose rate (10 mg ai/plant); range of vegetable crops and pests. On the procedure:
(§1) To the soil at the base of vegetable plants naturally infested with a population of a selected pest (refer Table 2) was applied by drench 30 to 100 mL per plant of an active ingredient (ai) solution at a dose rate of 10 mg ai/plant, wherein the solutions consisted of spiropidion or spirotetramat as active ingredient. Soil application was made 3 to 7 days after transplant in a nursery tray. Spiropidion was applied as a dilution of an SC300 formulation in water. Spirotetramat was applied as a dilution of an SC240 formulation in water. Mortality rates were recorded as a percentage against an untreated check plant and were evaluated at between 5 and 40 days after soil application.

Data set [1] in a line: Uptake from soil into tomato plants after drench, LC/MS of roots, stem and leaves. More on the design: species or system Solanum lycopersicum Ailsa Craig. The conditions noted are these: in vivo. On the procedure:
In a greenhouse at 20° C., tomato plants (Solanum lycopersicum Ailsa Craig at BBCH 12 growth stage) grown in 50% Jip 3 and 50% peat in 5″ pots were drenched (in five replicates) with 50 mL of a 100 ppm aqueous active ingredient solution (5 mg of active ingredient per plant) prepared from dilution of (i) a spiropidion SC300 formulation (SC=suspension concentrate), and (ii) commercially-available spirotetramat as a SC240 formulation. At four intervals post-treatment (1, 7, 14 and 21 days), tomato plants subjected to treatments (i) and (ii) were sectioned into roots, stem and separate leaf segments, washed and extracted with the quantification by liquid chromatography/mass spectrometry (LC/MS) of amounts (μg) of spiropidion and its dione (cide), and spirotetramat and its dione (cide).

The next data set concerns Aphis gossypii. Kind of data set: Soil drench on naturally infested vegetable plants, mortality. It is filed as in vivo. Particulars: soil drench 10 mg ai/plant, 5 to 40 days after application. On the procedure:
as §1

The next data set relates to Thrips sp. Described as above. It is filed as in vivo. The conditions noted are these: soil drench 10 mg ai/plant, 5 to 40 days after application. On the procedure: as §1
A further data set deals with Tetranychus urticae. The data set is described as above. It is filed as in vivo. The conditions noted are these: soil drench 10 mg ai/plant, 5 to 40 days after application. On the procedure: as §1
A further data set has as its system Bemisia tabaci. The description is as above. It is filed as in vivo. Particulars: soil drench 10 mg ai/plant, 5 to 40 days after application. On the procedure:
as §1

For data set [2], the system named is coffee leaf miner (Perileucoptera coffeella). Kind of data set: Soil drench on naturally infested coffee plants, mortality. Particulars: 30 to 95 days after application, against untreated check plant. In kind it is in vivo. On the procedure:
To the soil surface at the base of separate coffee plants naturally infested with a population of coffee leaf miner (Perileucoptera coffeella) was applied as a drench 50 to 100 mL of an active ingredient (ai) solution at a dose rate of 390 mg ai/plant, wherein the active ingredient was spiropidion, or thiamethoxam as a commercial standard. Spiropidion was applied as a dilution of an SC300 formulation in water. Thiamethoxam was applied as a dilution of a WG25 formulation in water. Mortality rates were recorded as a pest control percentage against an untreated check plant and were evaluated at between 30 and 95 days after soil application of the respective active ingredients.

For the compound `CCOC(=O)OC1=C(c2c(C)cc(Cl)cc2C)C(=O)N(C)C12CCN(OC)CC2` [spiropidion], the “mortality rates compared to spirotetramat” value in the data set on selected pests is given as “consistently higher”. Also, in data set [1], the “rate of uptake from the soil compared to spirotetramat” value is given as “much greater rate of uptake from the soil”.

On to `CCOC(=O)OC1=C(c2cc(C)ccc2C)C(=O)N[C@]12CC[C@@H](OC)CC2` [spirotetramat], for which the “% Mortality rate against untreated plant” value in the data set with Aphis gossypii (Test no. 8, Eggplant) came out at 71%; in the data set with Aphis gossypii (Test no. 10, Cucumber) it was 87%; in the data set on Aphis gossypii (Test no. 15, Melon), 63%; in the data set with Aphis gossypii (Test no. 18, Squash), 93%; in the data set with Aphis gossypii (Test no. 19, Squash), 84%; with Thrips sp. (Test no. 9, Cucumber), 90%. Besides, the “% Mortality rate against untreated plant” value with Thrips sp. (Test no. 11, Melon) is listed as 70%; in the data set with Thrips sp. (Test no. 12, Melon), 90%; with Thrips sp. (Test no. 13, Melon) it was 64%; in the data set with Thrips sp. (Test no. 22, Hot pepper), 46%; in the data set with Thrips sp. (Test no. 23, Sweet pepper) it was 53%; in the data set with Tetranychus urticae (Test no. 1, Eggplant), 62%. The “% Mortality rate against untreated plant” value in the data set on Tetranychus urticae (Test no. 2, Eggplant) was 85%; in the data set with Tetranychus urticae (Test no. 21, Hot pepper), 45%; in the data set with Bemisia tabaci (Test no. 3, Eggplant), 68%; in the data set with Bemisia tabaci (Test no. 4, Eggplant) it was 93%; with Bemisia tabaci (Test no. 5, Eggplant) it was 76%; in the data set with Bemisia tabaci (Test no. 6, Eggplant), 91%. In addition, the “% Mortality rate against untreated plant” value with Bemisia tabaci (Test no. 7, Eggplant) turned out to be 96%; in the data set on Bemisia tabaci (Test no. 14, Melon), 64%; in the data set on Bemisia tabaci (Test no. 16, Squash) it was 83%; in the data set with Bemisia tabaci (Test no. 17, Squash), 42%; with Bemisia tabaci (Test no. 20, Tomato), 84%.

In the case of `CN1COCN(Cc2cnc(Cl)s2)/C1=N\[N+](=O)[O-]` [thiamethoxam], the “% Mortality rate” value in data set [2] (Test no. 1, soil drench 390 mg ai/plant) is 39%; in data set [2] (Test no. 2, soil drench 390 mg ai/plant), 68%; in data set [2] (Test no. 3, soil drench 390 mg ai/plant), 81%; in data set [2] (Test no. 4, soil drench 390 mg ai/plant) it was 73%; in data set [2] (Test no. 5, soil drench 390 mg ai/plant), 38%.

(Values after patent US20220132849A1, “USE OF SPIROPIDION” (SYNGENTA CROP PROTECTION AG, priority 2019, published 2022).)
